We go through eight compounds from patent US4341780A, “Substituted pyrido [1,2-a] pyrimidines useful as anti-allergic, anti-ulcer and anti-diabetic agents” (Farmitalia Carlo Erba S.p.A., priority 1979, dated 1982).

Structures are written as SMILES.

Usually LD50 stands for the dose at which mortality reaches 50%.

In one data set the test system is passive cutaneous anaphylaxis (PCA). The data set is described as follows: IgE-mediated passive cutaneous anaphylaxis (PCA) test in rats, oral administration. The settings on record: rat PCA, p.o., pretreatment time 15'; KB = dose reducing to one half the activity of the sensitizing serum; lower = more active. The class given is in vivo. An excerpt:
The compounds of the invention have anti-allergic activity, and are therefore useful in the prevention and treatment of all the affections of allergic origin, e.g. bronchial asthma, allergic rhinitis, hay fever, urticaria and dermatosis. The anti-allergic activity of the compounds of the invention is shown, e.g., by the first that they are active in the passive cutaneous anaphylaxis (PCA) test in rats, according to Goose J. and Blair A. M. J. N. (Immunology, 16, 749, 1969).
The activity data are expressed in terms of KB defined as the dose of active compound capable of reducing to one half the activity of the serum used for the sensitization:
B=dose of antagonist compound expressed in mg/kg;
DR=dose ratio: antilogarithm of the distance between the Log dose effect functions of the scrum with and without antagonist (J. H. Gaddum et al, Exp. Physiol., 1955, 40, 49).
The KB is adopted here because this value is independent both of the dose of the drug and the reagin concentration used for the sensitization.
The lower the KB value, the higher the anti-allergic activity.
The anti-allergic activity was determined e.g. by the inhibition of the IgE-mediated PCA according to Goose J. and Blair A. M. J. N. (Immunology, 16, 749, 1969) using homocytotropic antibodies raised in rats following the method of Mota I., Immunology, 7, 681, (1964).
The tested compounds were administered per os (p.o) 15 minutes before the administration of the antigen: at least 6 rats were used for each dose.
Turning to `CCc1c(/C=C/c2cccc(OC)c2)nc2n(c1=O)C1CC1(C(=O)O)C=C2` (stereo not drawn) [FCE 20509, 2-trans-[2-(3-methoxy-phenyl)-ethenyl]-3-ethyl-6,7-methylen-4-oxo-4H-pyrido[1,2-a]pyrimidine-7-carboxylic acid], the “Anti-allergic activity KB” value turned out to be 0.61 mg/kg.

`CCCc1c(/C=C/c2cccc(OC)c2)nc2ccc(C(=O)O)cn2c1=O` [FCE 20183, 2-trans-[2-(3-methoxy-phenyl)-ethenyl]-3-propyl-4-oxo-4H-pyrido[1,2-a]pyrimidine-7-carboxylic acid]: the “Anti-allergic activity KB” value came out at 1.48 mg/kg.

With `CCCc1c(/C=C/c2ccccc2C)nc2ccc(C(=O)O)cn2c1=O` [FCE 20099, 2-trans-[2-(2-methyl-phenyl)-ethenyl]-3-propyl-4-oxo-4H-pyrido[1,2-a]pyrimidine-7-carboxylic acid], the “Anti-allergic activity KB” value turned out to be 2.02 mg/kg.

In the case of `CCCc1c(/C=C/c2ccccc2)nc2ccc(C(=O)O)cn2c1=O` [K 13808, 2-trans-(2-phenyl-ethenyl)-3-propyl-4-oxo-4H-pyrido[1,2-a]pyrimidine-7-carboxylic acid], the “Anti-allergic activity KB” value amounted to 2.16 mg/kg.

As to `CCCc1c(/C=C/c2cccc(OC)c2OC)nc2n(c1=O)C1CC1(C(=O)O)C=C2` (stereo not drawn) [FCE 20461, 2-trans-[2-(2,3-dimethoxy-phenyl)-ethenyl]-3-propyl-6,7-methylen-4-oxo-4H-pyrido[1,2-a]pyrimidine-7-carboxylic acid], the “Anti-allergic activity KB” value is given as 1.22 mg/kg.

In the case of `CCCc1c(/C=C/c2ccccc2)nc2n(c1=O)C1CC1(C(=O)O)C=C2` (stereo not drawn) [FCE 20188, 2-trans-(2-phenyl-ethenyl)-3-propyl-6,7-methylen-4-oxo-4H-pyrido[1,2-a]pyrimidine-7-carboxylic acid], the “Anti-allergic activity KB” value was 2.34 mg/kg.

On to `O=C(O)c1cc(=O)c2c(OCC(O)COc3cccc4oc(C(=O)O)cc(=O)c34)cccc2o1` [Disodium Cromoglycate, reference compound], for which the “Anti-allergic activity KB” value was more than 200 mg/kg.

Turning to `CCc1c(/C=C/c2ccccc2)nc2n(c1=O)C1CC1(C(=O)O)C=C2` (stereo not drawn) [K 13830, 2-trans-(2-phenyl-ethenyl)-3-ethyl-6,7-methylen-4-oxo-4H-pyrido[1,2-a]pyrimidine-7-carboxylic acid], the “Anti-allergic activity KB” value came to 1.15 mg/kg.

Tested on in another data set: not listed separately
The data set is described as follows: approximate acute toxicity (LD50) in the mouse, per os. The settings on record: in vivo, po, single administration of increasing doses, measured on the seventh day. How it is done:
For example, the approximate acute toxicity (LD50) of the compound 2-trans-(2-phenyl-ethenyl)-3-propyl-4-oxo-4H-pyrido(1,2-a)pyrimidine-7-carboxylic acid in the mouse, determined with single adminstration of increasing doses and measured on the seventh day of treatment is per os higher than 800 mg/kg. Analogous toxicity data have been found for the other compounds of the invention.
Consider `CCCc1c(/C=C/c2ccccc2)nc2ccc(C(=O)O)cn2c1=O` [K 13808, 2-trans-(2-phenyl-ethenyl)-3-propyl-4-oxo-4H-pyrido[1,2-a]pyrimidine-7-carboxylic acid], for which the LD50 at 168 h is more than 800 mg/kg.
